# Like-named read-outs stand apart in the source and are kept apart here.
# Assays:
# Dd2b2^WT = assay: [3H]-hypoxanthine incorporation assay; format: cell-based, Plasmodium falciparum; settings: Plasmodium falciparum, 72 h, read-out: Parent (Dd2b2^WT) IC50
# Procedure: (§1) P. falciparum asexual blood stage parasites were cultured in human red blood cells (RBC, Blutspende SRK, Zurich) at a hematocrit of 5% in RPMI 1640 medium. The RPMI 1640 medium (ThermoFisher Scientific #51800−043) was supplemented with the following: 24 mM NaHCO3 (pH 7.3, Sigma-Aldrich #31437−500G-R), 25 mM Hepes (Sigma-Aldrich #H4034−500G), 0.36 mM hypoxanthine (Sigma-Aldrich # H9377−25G), 100 µg mL^-1 neomycin (Sigma-Aldrich #N6386−100G) and 0.5% Albumax II (Thermo Fisher #11021−045). Additionally, 2 mM choline chloride (279 mg/L, Sigma-Aldrich #C7527−100G) was added to the culture to block the induction of sexual commitment as described. ^[31^] The RPMI 1640 medium and components were dissolved in water (Milli-Q purified), stirred for at least 3 h, and then sterile filtered (0.22 μm pore size) with a bottle top filter (Corning # 431118). Parasite cultures were maintained in an atmosphere of 3% O2, 4% CO2, and 93% N2 in air-tight chambers at 37 °C. The [^3H]-hypoxanthine incorporation assay was used to test compound activity in the specific parasite lines as described.^[32^] Briefly, compounds were dissolved in DMSO (10 mM) and diluted in a hypoxanthine-free culture medium. A limiting dilution was performed over a 64-fold range (6-step twofold dilution) in a 96-well plate in duplicates. For every starting concentration, a limiting dilution was performed over a 64-fold range (6-step twofold dilution) in a 96-well plate in two biological duplicates. Parasites were added at 100 µL to each well containing the compound to obtain a final parasitemia of 0.3% and haematocrit of 1.25%. The plates were incubated for 48 h before 0.25 µCi of [^3H]-hypoxanthine was added per well for an additional 24 h. Parasites were harvested on a glass-fiber filter with a Microbeta FilterMate cell harvester (Perkin Elmer, Waltham, USA) and radioactivity was counted using a MicroBeta2 liquid scintillation counter (Perkin Elmer, Waltham, US). […] The fifty percent inhibitory concentration (IC50) was calculated by using nonlinear, four parameter (variable slope) curve fitting as described ^[33^] after importing into GraphPad Prism (version 8.3.0).
# 31 was used for resistance selection studies using the strain Dd2b2 (kindly provided by David Fidock). Resistance selection was done as described in ^[34^]. As summarized in Table S3, an initial inoculum of 2 x 10^9 asexual blood stage parasites (at 2-2.5% parasitemia) were cultured in three independent flasks. […] Cloning via limiting dilution was performed to obtain resistant clones for further characterization as described in section 2.2.5.
# Dd2b2^pfmdr1 G182S = format: cell-based, Plasmodium falciparum; settings: Dd2b2^pfmdr1 G182S vs Dd2b2^WT
# Procedure: (§2) ^[a] 72-h [^3H] hypoxanthhine incorporation assay; Data is expressed as mean±s.d. The assay was performed in three independent biological experiments, each in biological duplicates
# as §1
# Dd2b2^pfmdr1 K1065N = format: cell-based, Plasmodium falciparum; settings: Dd2b2^pfmdr1 K1065N vs Dd2b2^WT
# Procedure: as §2
# (§3) P. falciparum asexual blood stage parasites were cultured in human red blood cells (RBC, Blutspende SRK, Zurich) at a hematocrit of 5% in RPMI 1640 medium. The RPMI 1640 medium (ThermoFisher Scientific #51800−043) was supplemented with the following: 24 mM NaHCO3 (pH 7.3, Sigma-Aldrich #31437−500G-R), 25 mM Hepes (Sigma-Aldrich #H4034−500G), 0.36 mM hypoxanthine (Sigma-Aldrich # H9377−25G), 100 µg mL^-1 neomycin (Sigma-Aldrich #N6386−100G) and 0.5% Albumax II (Thermo Fisher #11021−045). Additionally, 2 mM choline chloride (279 mg/L, Sigma-Aldrich #C7527−100G) was added to the culture to block the induction of sexual commitment as described. ^[31^] The RPMI 1640 medium and components were dissolved in water (Milli-Q purified), stirred for at least 3 h, and then sterile filtered (0.22 μm pore size) with a bottle top filter (Corning # 431118). Parasite cultures were maintained in an atmosphere of 3% O2, 4% CO2, and 93% N2 in air-tight chambers at 37 °C. The [^3H]-hypoxanthine incorporation assay was used to test compound activity in the specific parasite lines as described.^[32^] Briefly, compounds were dissolved in DMSO (10 mM) and diluted in a hypoxanthine-free culture medium. A limiting dilution was performed over a 64-fold range (6-step twofold dilution) in a 96-well plate in duplicates. For every starting concentration, a limiting dilution was performed over a 64-fold range (6-step twofold dilution) in a 96-well plate in two biological duplicates. Parasites were added at 100 µL to each well containing the compound to obtain a final parasitemia of 0.3% and haematocrit of 1.25%. The plates were incubated for 48 h before 0.25 µCi of [^3H]-hypoxanthine was added per well for an additional 24 h. Parasites were harvested on a glass-fiber filter with a Microbeta FilterMate cell harvester (Perkin Elmer, Waltham, USA) and radioactivity was counted using a MicroBeta2 liquid scintillation counter (Perkin Elmer, Waltham, US). The results were recorded, processed by subtraction of the mean background signal obtained from the uninfected RBC controls and expressed as percentage of untreated controls. The fifty percent inhibitory concentration (IC50) was calculated by using nonlinear, four parameter (variable slope) curve fitting as described ^[33^] after importing into GraphPad Prism (version 8.3.0).
# 3D7^WT = assay: [3H]-hypoxanthine incorporation assay; format: cell-based; settings: Plasmodium falciparum, read-out: 3D7^WT IC50
# Procedure: (§4) ^[a] 72-h [^3H] hypoxanthhine incorporation assay; Data is expressed as mean±s.d.. The assay was performed in three independent biological experiments, each in biological duplicates.
# as §3
# 3D7^Cas9 pfmdr1 G182S = format: cell-based, Plasmodium falciparum; settings: 3D7^Cas9 pfmdr1 G182S vs 3D7^WT
# Procedure: as §4, §3
# The P. falciparum 3D7 wild type parasites in the ring stage were transfected as described.^[20] Infected RBCs collected from a 5 ml culture of synchronous ring stage parasites (5-6% parasitemia at ) were added to 250 µl of packed RBCs and were co-transfected with 50µg of Cas9 and 50 µg of donor plasmids using a Bio-Rad Gene Pulser Xcell Electroporation System (single exponential pulse, 310 V, 250 µF). 24 hours post-transfection, 5 nM WR99210 (MedChemExpress #HY-116387) was added to the culture medium for six days to select for gene-edited parasites, and henceforth parasites were maintained in normal culture medium until a stably propagating parasite population was obtained. After ~4 weeks post-transfection, stably propagating parasite population were obtained. The transgenic parasite line (3D7^pfmdr1 G182S) was cloned out using an established plaque assays via limiting dilution.^[35^] […]
# [1] = system: P. falciparum NF54 strain; assay: [3H]-hypoxanthine incorporation assay, asexual blood stage; format: cell-based, Plasmodium falciparum; settings: Plasmodium falciparum, NF54, asexual blood stage; mean ± s.d.; read-out: PfNF54 IC50 ± s.d.
# Procedure: as §1
# [2] = Metabolic stability in liver S9 fractions; format: in vitro ADME; settings: pooled mouse liver S9 fraction; 1 μM compound, 1 mg/mL pooled mouse liver S9, 37 °C; read-out: t1/2 Mouse Liver S9
# Procedure: To evaluate phase I and phase II metabolic stability, the compound (1 μM) was incubated at 37 °C for 240 min with 1 mg/mL pooled mouse liver S9 fraction (Xenotech, Kansas City, USA), 2 mM NADPH, 1 mM UDPGA, 10 mM MgCl2, 5 mM GSH and 0.1 mM PAPS. Metabolic stability of reference compounds: testosterone, verapamil and ketoconazole was determined in parallel to confirm the enzymatic activity of mouse S9 fractions. At defined time points, the incubation was stopped by precipitation of aliquots of S9 enzymes with 2 volumes of cold acetonitrile containing internal standard (150 nM diphenhydramine or 15 nM for Altis Plus measurements). Samples were kept on ice until the end of the incubation, after which precipitated protein was removed by centrifugation (15 min, 4 °C, 4,000 g).
# HepG2 = assay: Cytotoxicity assay (MTT); format: cell-based, human; settings: Homo sapiens, HepG2; 100 µM, 48 h, MTT
# Procedure: HepG2 (2x10^4 cells per well) were seeded in 96-well flat-bottom culture plates in 100 µL of culture medium (DMEM containing 10% fetal calve serum and 1% penicillin-streptomycin). After 24 hours, the medium was replaced by fresh medium containing test compounds in a final DMSO concentration of 1%. […] Epirubicin and doxorubicin were used as positive controls in serial dilutions starting from 10 µM, and rifampicin was used as a negative control (at 100 µM). Cell viability was determined 48 h after treatment with compounds by adding 0.1 volumes of 3-(4,5-dimethylthiazol-2-yl)-2,5-diphenyltetrazolium bromide (MTT) solution (5 mg/mL sterile PBS) (Sigma, St. Louis, MO) to the wells. After incubating the cells for 30 min at 37 °C (atmosphere containing 5% CO2), medium was removed and MTT crystals were dissolved in 75 µL of a solution containing 10% SDS and 0.5% acetic acid in DMSO. The optical density (OD) of the samples was measured photometrically at 570 nm in a PHERAstar Omega plate reader (BMG labtech, Ortenberg, Germany). Percent viability was calculated by normalizing sample ODs to those of the DMSO controls. Each compound was tested in at least two independent experiments and CC50 values were determined using the nonlinear regression function of GraphPad Prism 10 (GraphPad Software, San Diego, CA, USA).
SMILES,IC50 (Dd2b2^WT) [nM],IC50 fold shift relative to parental clone (Dd2b2^pfmdr1 G182S),IC50 fold shift relative to parental clone (Dd2b2^pfmdr1 K1065N),"IC50 (3D7^WT; 3D7, 72-h assay, mean±s.d.) [nM]",IC50 fold shift relative to 3D7^WT strain (3D7^Cas9 pfmdr1 G182S),IC50 [1] [nM],half-life at 1 µM [2] [min],"IC50 (3D7^WT; 3D7, 72 h) [nM]",inhibition at 100 µM (HepG2) [%]
"CCCCN(CCCC)CC(O)c1cc(Cl)cc2c1-c1ccc(Cl)cc1/C2=C/c1ccc(Cl)cc1 (stereo not shown) [Lumefantrine, lumefantrine, reference compound]",1.6 ± 0.8,0.4,0.8,1.6 ± 0.8,0.8,–,–,–,–
"CCN(CC)Cc1ccc(O)c(NC(=O)c2cccc(Oc3cc(C(F)(F)F)ccn3)c2)c1 [Compound 27, N-(5-((diEthylamino)methyl)-2-hydroxyphenyl)-3-((4-(trifluoromethyl)pyridin-2-yl)oxy)benzamide]",3.5 ± 0.7,10.6,9.4,2.2 ± 0.2,1.5,11 ± 3.4,–,–,–
"OC(c1cc(C(F)(F)F)nc2c(C(F)(F)F)cccc12)C1CCCCN1 (stereo not shown) [Mefloquine, mefloquine, reference compound]",1.1 ± 0.2,0.3,0.8,1.4 ± 0.5,1.3,–,–,–,–
"CC(C)(C)c1ccc(O)c(NC(=O)c2cccc(Oc3cc(C(F)(F)F)ccn3)c2)c1 [Compound 24, N-(5-(tert-Butyl)-2-hydroxyphenyl)-3-((4-(trifluoromethyl)pyridin-2-yl)oxy)benzamide]",–,–,–,–,–,17 ± 3,5.4 ± 0.5,–,–
"CCN(CC)CCCC(C)Nc1ccnc2cc(Cl)ccc12 (stereo not shown) [Chloroquine, chloroquine, reference compound]",22.3 ± 1.3,–,–,–,–,–,–,1.9 ± 0.1,–
"CCN(CC)Cc1cc(Nc2ccnc3cc(Cl)ccc23)ccc1O [Amodiaquine, amodiaquine, reference compound]",0.8 ± 0.2,1.1,1.2,0.8 ± 0.2,1.2,–,–,–,–
"O=C(Nc1cc(CN2CCOCC2)cc(F)c1O)c1cccc(Oc2cc(C(F)(F)F)ccn2)c1 [Compound 32, N-(3-Fluoro-2-hydroxy-5-(morpholinomethyl)phenyl)-3-((4-(trifluoromethyl)pyridin-2-yl)oxy)benzamide]",–,–,–,–,–,21.6 ± 2.65,18.4 ± 4.2,–,51 ± 1
"O=C(Nc1cc(CN2CCOCC2)cc(Cl)c1O)c1cccc(Oc2cc(C(F)(F)F)ccn2)c1 [Compound 33, N-(3-Chloro-2-hydroxy-5-(morpholinomethyl)phenyl)-3-((4-(trifluoromethyl)pyridin-2-yl)oxy)benzamide]",–,–,–,–,–,63 ± 7.4,49.9 ± 4,–,66 ± 2
"O=C(Nc1cc(CN2CCOCC2)ccc1O)c1cccc(Oc2cc(C(F)(F)F)ccn2)c1 [Compound 30, N-(2-Hydroxy-5-(morpholinomethyl)phenyl)-3-((4-(trifluoromethyl)pyridin-2-yl)oxy)benzamide]",5.2 ± 0.3,–,11.8,2.6 ± 0.5,–,10 ± 1.8,28.1 ± 5.5,–,45 ± 21
